Assay results taken from US20230021483A1, “[…] […] METHOD AND CLASSIFICATION OF PHARMACEUTICAL COMPONENTS BY USING TRANSCRIPTOMES” (National Institutes of Biomedical Innovation, Health and …, priority 2016, published 2023).

Assays:
LV, SP and LNs = assay: Whole organ transcriptome across organs (adjuvant gene space): gene responses and adjuvant grouping; assay type: in vivo, C57BL/6 mice
[1] = test system: adjuvant-associated biological themes in LV, SP, LN
In short: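 Per-mouse whole-organ transcriptomes; genes with eij/ei(c)>2.0 tested for theme enrichment via TargetMine (GO, KEGG, Reactome, others), Fisher's exact test, Holm-Bonferroni correction. Themes shared by all three mice kept at p<0.05, using the smallest p. Score per adjuvant-associated term = Σ−log(p) of matching themes.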

K3: B class CpG ODN (ATCGACTCTCGAGCGTTCTC), TLR9 ligand (chemistry not given here)
gene expression changes in LV and SP (LV, SP and LNs; 6 h, Table 15, route not given): relatively weaker responses | distribution/strength of gene responses between local LNs and systemic organs (LV, SP) (LV, SP and LNs; 6 h after i.d. (local) administration): acted on local LNs but not in the systemic remote organs | adjuvant group (cluster) within the adjuvant gene space (LV, SP and LNs; hierarchical clustering, LV, SP and/or LNs): G5 | tissue damage-associated annotations (cell death, wounding) in LNs ([1]; LN, i.d., fold change >2): did not induce cell death and wounding in LNs | IFN alpha, GO annotation line 1 of 5 ([1]; LV, ID): 0 | IFN alpha, GO annotation line 2 of 5 ([1]; LV, ID): 0 | IFN alpha: cellular response to interferon-alpha ([1]; LV, ID): 0 | IFN alpha: positive regulation of interferon-alpha production ([1]; LV, ID): 0 | IFN alpha: regulation of interferon-alpha production ([1]; LV, ID): 0 | IFN beta: cellular response to interferon-beta ([1]; LV, ID): 0 | IFN beta: interferon-beta production ([1]; LV, ID): 0 | IFN beta: positive regulation of interferon-beta production ([1]; LV, ID): 0 | IFN beta: regulation of interferon-beta production ([1]; LV, ID): 0 | IFN beta: response to interferon-beta ([1]; LV, ID): 0 | IFN gamma: cellular response to interferon-gamma ([1]; LV, ID): 0 | IFN gamma: interferon-gamma production ([1]; LV, ID): 0 | IFN gamma: regulation of interferon-gamma production ([1]; LV, ID): 0 | IFN gamma: response to interferon-gamma ([1]; LV, ID): 0 | NF-kappa B signaling pathway, GO annotation line 1 of 4 ([1]; LV, ID): 6.19 | NF-kappa B signaling pathway, GO annotation line 2 of 4 ([1]; LV, ID): 0 | NF-kappa B signaling pathway, GO annotation line 3 of 4 ([1]; LV, ID): 0 | NF-kappa B signaling pathway, GO annotation line 4 of 4 ([1]; LV, ID): 0 | TNF signaling pathway ([1]; LV, ID): 14.5 | adaptive immune response, GO annotation line 1 of 5 ([1]; LV, ID): 0 | adaptive immune response, GO annotation line 2 of 5 ([1]; LV, ID): 0 | adaptive immune response, GO annotation line 3 of 5 ([1]; LV, ID): 0 | adaptive immune response, GO annotation line 4 of 5 ([1]; LV, ID): 0 | adaptive immune response, GO annotation line 5 of 5 ([1]; LV, ID): 0 | apoptosis, GO annotation line 1 of 8 ([1]; LV, ID): 15.7 | apoptosis, GO annotation line 2 of 8 ([1]; LV, ID): 10.1 | apoptosis, GO annotation line 3 of 8 ([1]; LV, ID): 10.3 | apoptosis, GO annotation line 4 of 8 ([1]; LV, ID): 0 | apoptosis, GO annotation line 5 of 8 ([1]; LV, ID): 5.99 | apoptosis, GO annotation line 6 of 8 ([1]; LV, ID): 3.19 | apoptosis, GO annotation line 7 of 8 ([1]; LV, ID): 0 | apoptosis, GO annotation line 8 of 8 ([1]; LV, ID): 0 | cell death, GO annotation line 1 of 9 ([1]; LV, ID): 18.3 | cell death, GO annotation line 2 of 9 ([1]; LV, ID): 13.9 | cell death, GO annotation line 3 of 9 ([1]; LV, ID): 14.9 | cell death, GO annotation line 4 of 9 ([1]; LV, ID): 10.5 | cell death, GO annotation line 5 of 9 ([1]; LV, ID): 10.9 | cell death, GO annotation line 6 of 9 ([1]; LV, ID): 7.25 | cell death, GO annotation line 7 of 9 ([1]; LV, ID): 6.67 | cell death, GO annotation line 8 of 9 ([1]; LV, ID): 0 | cell death, GO annotation line 9 of 9 ([1]; LV, ID): 0 | chemokine, GO annotation line 1 of 4 ([1]; LV, ID): 0 | chemokine, GO annotation line 2 of 4 ([1]; LV, ID): 0 | chemokine, GO annotation line 3 of 4 ([1]; LV, ID): 0 | chemokine, GO annotation line 4 of 4 ([1]; LV, ID): 0 | chemotaxis, GO annotation line 1 of 11 ([1]; LV, ID): 0 | chemotaxis, GO annotation line 2 of 11 ([1]; LV, ID): 0 | chemotaxis, GO annotation line 3 of 11 ([1]; LV, ID): 0 | chemotaxis, GO annotation line 4 of 11 ([1]; LV, ID): 0 | chemotaxis, GO annotation line 5 of 11 ([1]; LV, ID): 0 | chemotaxis, GO annotation line 6 of 11 ([1]; LV, ID): 0 | chemotaxis, GO annotation line 7 of 11 ([1]; LV, ID): 0 | chemotaxis, GO annotation line 8 of 11 ([1]; LV, ID): 0 | chemotaxis, GO annotation line 9 of 11 ([1]; LV, ID): 0 | chemotaxis, GO annotation line 10 of 11 ([1]; LV, ID): 0 | chemotaxis, GO annotation line 11 of 11 ([1]; LV, ID): 0 | cytokine, GO annotation line 1 of 17 ([1]; LV, ID): 0 | cytokine, GO annotation line 2 of 17 ([1]; LV, ID): 0 | cytokine, GO annotation line 3 of 17 ([1]; LV, ID): 0 | cytokine, GO annotation line 4 of 17 ([1]; LV, ID): 0 | cytokine, GO annotation line 5 of 17 ([1]; LV, ID): 0 | cytokine, GO annotation line 6 of 17 ([1]; LV, ID): 0 | cytokine, GO annotation line 7 of 17 ([1]; LV, ID): 0 | cytokine, GO annotation line 8 of 17 ([1]; LV, ID): 0 | cytokine, GO annotation line 9 of 17 ([1]; LV, ID): 0 | cytokine, GO annotation line 10 of 17 ([1]; LV, ID): 0 | cytokine, GO annotation line 11 of 17 ([1]; LV, ID): 0 | cytokine, GO annotation line 12 of 17 ([1]; LV, ID): 0 | cytokine, GO annotation line 13 of 17 ([1]; LV, ID): 0 | cytokine, GO annotation line 14 of 17 ([1]; LV, ID): 0 | cytokine, GO annotation line 15 of 17 ([1]; LV, ID): 0 | cytokine, GO annotation line 16 of 17 ([1]; LV, ID): 0 | cytokine, GO annotation line 17 of 17 ([1]; LV, ID): 0 | defense response, GO annotation line 1 of 11 ([1]; LV, ID): 0 | defense response, GO annotation line 2 of 11 ([1]; LV, ID): 0 | defense response, GO annotation line 3 of 11 ([1]; LV, ID): 0 | defense response, GO annotation line 4 of 11 ([1]; LV, ID): 0 | defense response, GO annotation line 5 of 11 ([1]; LV, ID): 0 | defense response, GO annotation line 6 of 11 ([1]; LV, ID): 0 | defense response, GO annotation line 7 of 11 ([1]; LV, ID): 0 | defense response, GO annotation line 8 of 11 ([1]; LV, ID): 0 | defense response, GO annotation line 9 of 11 ([1]; LV, ID): 0 | defense response, GO annotation line 10 of 11 ([1]; LV, ID): 0 | defense response, GO annotation line 11 of 11 ([1]; LV, ID): 0 | immune response, GO annotation line 1 of 8 ([1]; LV, ID): 0 | immune response, GO annotation line 2 of 8 ([1]; LV, ID): 0 | immune response, GO annotation line 3 of 8 ([1]; LV, ID): 0 | immune response, GO annotation line 4 of 8 ([1]; LV, ID): 0 | immune response, GO annotation line 5 of 8 ([1]; LV, ID): 0 | immune response, GO annotation line 6 of 8 ([1]; LV, ID): 0 | immune response, GO annotation line 7 of 8 ([1]; LV, ID): 0 | immune response, GO annotation line 8 of 8 ([1]; LV, ID): 0 | inflammatory response, GO annotation line 1 of 5 ([1]; LV, ID): 0 | inflammatory response, GO annotation line 2 of 5 ([1]; LV, ID): 0 | inflammatory response, GO annotation line 3 of 5 ([1]; LV, ID): 0 | inflammatory response, GO annotation line 4 of 5 ([1]; LV, ID): 0 | inflammatory response, GO annotation line 5 of 5 ([1]; LV, ID): 0 | innate immune response, GO annotation line 1 of 6 ([1]; LV, ID): 0 | innate immune response, GO annotation line 2 of 6 ([1]; LV, ID): 0 | innate immune response, GO annotation line 3 of 6 ([1]; LV, ID): 0 | innate immune response, GO annotation line 4 of 6 ([1]; LV, ID): 0 | innate immune response, GO annotation line 5 of 6 ([1]; LV, ID): 0 | innate immune response, GO annotation line 6 of 6 ([1]; LV, ID): 0 | interleukin-6: interleukin-6 production ([1]; LV, ID): 0 | interleukin-6: positive regulation of interleukin-6 production ([1]; LV, ID): 0 | interleukin-6: regulation of interleukin-6 production ([1]; LV, ID): 0 | interleukin-12: interleukin-12 production ([1]; LV, ID): 0 | interleukin-12: positive regulation of interleukin-12 production ([1]; LV, ID): 0 | interleukin-12: regulation of interleukin-12 production ([1]; LV, ID): 0 | migration, GO annotation line 1 of 10 ([1]; LV, ID): 0 | migration, GO annotation line 2 of 10 ([1]; LV, ID): 0 | migration, GO annotation line 3 of 10 ([1]; LV, ID): 0 | migration, GO annotation line 4 of 10 ([1]; LV, ID): 0 | migration, GO annotation line 5 of 10 ([1]; LV, ID): 0 | migration, GO annotation line 6 of 10 ([1]; LV, ID): 0 | migration, GO annotation line 7 of 10 ([1]; LV, ID): 0 | migration, GO annotation line 8 of 10 ([1]; LV, ID): 0 | migration, GO annotation line 9 of 10 ([1]; LV, ID): 0 | migration, GO annotation line 10 of 10 ([1]; LV, ID): 0 | stress, GO annotation line 1 of 3 ([1]; LV, ID): 12.9 | stress, GO annotation line 2 of 3 ([1]; LV, ID): 0 | stress, GO annotation line 3 of 3 ([1]; LV, ID): 0 | wounding, GO annotation line 1 of 3 ([1]; LV, ID): 0 | wounding, GO annotation line 2 of 3 ([1]; LV, ID): 0 | wounding, GO annotation line 3 of 3 ([1]; LV, ID): 0
